Results as given in patent US20160058782A1, “MAILLARD REACTION INHIBITOR” (MORISHITA JINTAN CO., LTD., priority 2011, published 2016).
Values after ≈ are worked out from the molar mass of the structure shown.

Tested on: Maillard reaction (Human Serum Albumin and Glucose)
Assay: Measurement of the Maillard reaction inhibitory activity (fluorescent products of human serum albumin and glucose, 60° C., 40 hours)
Details: for IC50: human, 40 h; for IC50 values compared with tannic acid, ellagic acid dihydrate and aminoguanidine / Maillard reaction inhibitory activity compared with aminoguanidine (positive control) / Maillard reaction inhibition ratio (%) compared with ellagic acid dihydrate and aminoguanidine: in words; for Maillard reaction inhibitory activity compared with aminoguanidine (positive control): Tables 2 and 3; for Maillard reaction inhibition ratio (%) compared with ellagic acid dihydrate and aminoguanidine: when prepared at lower concentrations
Method: A pomegranate extract (containing 50% by mass of polyphenol; manufactured by Morishita Jintan Co., Ltd.), punicalin, punicalagin, oenothein B, eucarbanin B, punicacortein C, a compound represented by the formula (VI), and a compound represented by the formula (VII) were used as samples to be examined. Tannic acid and ellagic acid dihydrate were used for comparison. Aminoguanidine was used as a positive control. […], 300 μg/mL and 1,000 μg/mL, and the Maillard reaction inhibitory activity of the prepared solutions was measured. The inhibitory activity was measured as follows.
Four reaction solutions A to D shown in Table 1 below were prepared using the above-described prepared solutions of the samples, and were incubated at 60° C. for 40 hours to cause the Maillard reaction. Thereafter, 400 μL of the reaction solutions A to D was diluted with 2,400 μL of distilled water and diluted samples were obtained. The fluorescence intensity (the excitation light: 370 nm; the measurement light: 440 nm) of the diluted samples was measured and was expressed as a relative value with respect to the fluorescence intensity of 0.1 μg/mL solution of quinine sulfate that was taken as 100 to calculate the amount of fluorescent products of the Maillard reaction (quantitative value).
Next, the Maillard reaction inhibition ratio (%) with respect to the above-described prepared solutions (concentration (μg/mL)) of the samples was calculated from the obtained quantitative value using the following equation.
Equation: Inhibition ratio (%)=100−[(a−b)/(c−d)]×100 [Formula 1]
where a represents a relative value (−) of the fluorescent products of the Maillard reaction with the reaction solution A calculated in terms of quinine sulfate,
b represents a relative value (−) of the fluorescent products of the Maillard reaction in terms of quinine sulfate when the reaction solution B is used,
c represents a relative value (−) of the fluorescent products of the Maillard reaction in terms of quinine sulfate when the reaction solution C is used, and
d represents a relative value (−) of the fluorescent products of the Maillard reaction in terms of quinine sulfate when the reaction solution D is used.
Thereafter, 50% inhibition ratio (IC50) of each sample was calculated as follows. That is, the inhibition ratio was plotted with respect to the sample concentration, 4-parameter plot was performed, and the concentration showing an inhibition ratio of 50% was taken as IC50.

Row | SMILES | Maillard reaction inhibition ratio (%) (Conc. 0.01 mg/mL) | Maillard reaction inhibition ratio (%) (Conc. 0.1 mg/mL) | Maillard reaction inhibition ratio (%) (Conc. 1 mg/mL) | Maillard reaction inhibition ratio (%) (Conc. 10 mg/mL) | IC50 | Maillard reaction inhibition ratio (%) (Conc. 0.03 mg/mL) | Maillard reaction inhibition ratio (%) (Conc. 0.3 mg/mL) | IC50 values compared with tannic acid, ellagic acid dihydrate and aminoguanidine | Maillard reaction inhibitory activity compared with aminoguanidine (positive control) | Maillard reaction inhibition ratio (%) compared with ellagic acid dihydrate and aminoguanidine | Maillard reaction inhibition ratio (%) (Conc. 100 mg/mL) | Maillard reaction inhibition ratio (%) (Conc. 300 mg/mL) | Maillard reaction inhibition ratio (%) (Conc. 1000 mg/mL)
1 | O=C(OC[C@H]1O[C@@H](OC(=O)c2cc(O)c(O)c(OC(=O)c3cc(O)c(O)c(O)c3)c2)[C@H](OC(=O)c2cc(O)c(O)c(OC(=O)c3cc(O)c(O)c(O)c3)c2)[C@@H](OC(=O)c2cc(O)c(O)c(OC(=O)c3cc(O)c(O)c(O)c3)c2)[C@@H]1OC(=O)c1cc(O)c(O)c(OC(=O)c2cc(O)c(O)c(O)c2)c1)c1cc(O)c(O)c(OC(=O)c2cc(O)c(O)c(O)c2)c1 [Tannic acid, reference compound] | 12.7% | 48.7% | 65.1% | 68.8% | 0.31 µg/mL (≈ 0.182 µM) |  |  |  |  |  |  |  | 
2 | O=C1OC[C@H]2OC(O)[C@H](O)[C@@H](O)[C@@H]2OC(=O)c2cc(O)c(O)c(O)c2-c2c(O)c(O)c3oc(=O)c4c(c(O)c(O)c5oc(=O)c2c3c54)-c2c1cc(O)c(O)c2O (stereo partly shown) [Punicalin, punicalin] | 7.6% | 32.1% | 73.1% | 84.9% |  | 6.5% | 69.6% | particularly low | superior Maillard reaction inhibitory activity to aminoguanidine | particularly superior |  |  | 
3 | O=C(OC1C(O)OC2COC(=O)c3cc(Oc4c(C(=O)OC5C(O)OC6COC(=O)c7cc(O)c(O)c(O)c7-c7c(cc(O)c(O)c7O)C(=O)O[C@H]6C5OC(=O)c5cc(O)c(O)c(O)c5)cc(O)c(O)c4O)c(O)c(O)c3-c3c(cc(O)c(O)c3O)C(=O)O[C@H]2C1OC(=O)c1cc(O)c(O)c(O)c1)c1cc(O)c(O)c(O)c1 (stereo partly shown) [Eucarbanin B, eucarbanin B] |  | 21.2% | 72.9% | 79.4% | 0.43 µg/mL (≈ 0.274 µM) |  |  |  | superior Maillard reaction inhibitory activity to aminoguanidine |  |  |  | 
4 | N=C(N)NN [Aminoguanidine, reference compound] |  |  |  |  | 273 µg/mL (≈ 3690 µM) |  |  |  |  |  | 40.2% | 51.4% | 62%
5 | O=C1OC2C(O)OC3COC(=O)c4cc(O)c(O)c(O)c4-c4c(O)c(O)c5oc(=O)c6c(c(O)c(O)c7oc(=O)c4c5c76)-c4c(cc(O)c(O)c4O)C(=O)O[C@H]3C2OC(=O)c2cc(O)c(O)c(O)c2-c2c1cc(O)c(O)c2O (stereo partly shown) [Punicalagin, punicalagin] | 4.3% | 36.2% | 73.5% | 86.1% |  | 10.9% | 71.4% | particularly low | superior Maillard reaction inhibitory activity to aminoguanidine | particularly superior |  |  | 
6 | O=C(OC1C(O)OC2COC(=O)c3cc(Oc4c(C(=O)OC5C(O)OC6COC(=O)c7cc(Oc8c(C(=O)OC9C(O)OC%10COC(=O)c%11cc(Oc%12c(C(=O)OC%13C(O)OC%14COC(=O)c%15cc(O)c(O)c(O)c%15-c%15c(cc(O)c(O)c%15O)C(=O)O[C@H]%14C%13OC(=O)c%13cc(O)c(O)c(O)c%13)cc(O)c(O)c%12O)c(O)c(O)c%11-c%11c(cc(O)c(O)c%11O)C(=O)O[C@H]%10C9OC(=O)c9cc(O)c(O)c(O)c9)cc(O)c(O)c8O)c(O)c(O)c7-c7c(cc(O)c(O)c7O)C(=O)O[C@H]6C5OC(=O)c5cc(O)c(O)c(O)c5)cc(O)c(O)c4O)c(O)c(O)c3-c3c(cc(O)c(O)c3O)C(=O)O[C@H]2C1OC(=O)c1cc(O)c(O)c(O)c1)c1cc(O)c(O)c(O)c1 (stereo partly shown) | 30.4% | 40.3% | 74.3% | 82.5% |  |  |  | particularly low | superior Maillard reaction inhibitory activity to aminoguanidine | particularly superior |  |  | 
7 | O=c1oc2c(O)c(O)cc3c(=O)oc4c(O)c(O)cc1c4c23 [Ellagic acid dihydrate, ellagic acid dihydrate, reference compound] | 1.9% | 12.0% | 68.3% | 78.4% | 0.34 µg/mL | 2.2% | 44.8% |  |  |  |  |  | 
8 | O=C(OC1C(O)OC2COC(=O)c3cc(Oc4c(C(=O)OC5C(O)OC6COC(=O)c7cc(Oc8c(C(=O)OC9C(O)OC%10COC(=O)c%11cc(O)c(O)c(O)c%11-c%11c(cc(O)c(O)c%11O)C(=O)O[C@H]%10C9OC(=O)c9cc(O)c(O)c(O)c9)cc(O)c(O)c8O)c(O)c(O)c7-c7c(cc(O)c(O)c7O)C(=O)O[C@H]6C5OC(=O)c5cc(O)c(O)c(O)c5)cc(O)c(O)c4O)c(O)c(O)c3-c3c(cc(O)c(O)c3O)C(=O)O[C@H]2C1OC(=O)c1cc(O)c(O)c(O)c1)c1cc(O)c(O)c(O)c1 (stereo partly shown) [Compound represented by the formula (VI)] |  | 46.6% | 76.7% | 95.4% | 0.13 µg/mL |  |  | particularly low | superior Maillard reaction inhibitory activity to aminoguanidine |  |  |  | 
